Earlier results, collected in US12521383B2 (Slayback Pharma LLC, priority 2022, dated 2026).

Settings: in water, pH independent solubility profile

COc1ccc(-n2nc(C(N)=O)c3c2C(=O)N(c2ccc(N4CCCCC4=O)cc2)CC3)cc1 [apixaban, 1-(4-methoxyphenyl)-7-oxo-6-[4-(2-oxopiperidin-1-yl)phenyl]-4,5-dihydropyrazolo [3,4-c] pyridine-3-carboxamide]
aqueous solubility: 40 to 50 µg/mL
